Reference: ChEMBL document CHEMBL4130537, “Houttuynoid M, an Anti-HSV Active Houttuynoid from Houttuynia cordata Featuring a Bis-houttuynin Chain Tethered to a Flavonoid Core” (J Nat Prod, 2017)

Experiments:
[1] = Selectivity index, ratio of CC50 for African green monkey Vero cells to IC50 for HSV1/F; format: toxicity; details: read-out: Ratio CC50/IC50
[2] = Cytotoxicity against African green monkey Vero cells assessed as decrease in cell viability after 24 hrs by CellTiter-Glo luminescent assay; format: cell-based; details: chlorocebus sabaeus
Human alphaherpesvirus 1 = assay: Antiviral activity against HSV1/F infected in African green monkey Vero cells assessed as inhibition of plaque formation after 24 hrs by crystal violet staining-based assay; format: functional, organism-based; details: Human alphaherpesvirus 1, strain F

| Compound | selectivity ratio [1] | CC50 at 24 h [2] | IC50 (Human alphaherpesvirus 1) |
| --- | --- | --- | --- |
| CCCCCCCCCC(=O)/C=C/c1c(CCCCCCCCC)oc2c(O)ccc(-c3oc4cc(O)cc(O)c4c(=O)c3O[C@@H]3O[C@H](CO)[C@H](O)[C@H](O)[C@H]3O)c12 | > 11.3 | > 200 µM | 17.7 µM |
| CCCCCCCCCc1oc2c(O)ccc(-c3oc4cc(O)cc(O)c4c(=O)c3O[C@@H]3O[C@H](CO)[C@H](O)[C@H](O)[C@H]3O)c2c1C=O | > 16.1 | > 200 µM | 12.4 µM |
| Nc1nc2c(ncn2COCCO)c(=O)[nH]1 [ACYCLOVIR] | > 1330 | > 200 µM | 0.15 µM |
